Measured values from ChEMBL document CHEMBL2074255, “Human intestinal H+/peptide cotransporter. Cloning, functional expression, and chromosomal localization” (J Biol Chem, 1995).
One block for each molecule: values may come before it. Residues, ends and D or L forms follow the SMILES beside them.

How the values were obtained:
Assay type in all cases: functional, cell-based
[1] = target: T1, Solute carrier family 15 member 1 (Homo sapiens) (UniProt P46059); test: TP_TRANSPORTER: inhibition of Gly-Sar uptake (Gly-Sar: 20 uM, Ala-Pro: 10000 uM) in PEPT1-expressing HeLa cells; set-up: scale not given: the % may be the effect or the level left
T1 sequence (whole entry): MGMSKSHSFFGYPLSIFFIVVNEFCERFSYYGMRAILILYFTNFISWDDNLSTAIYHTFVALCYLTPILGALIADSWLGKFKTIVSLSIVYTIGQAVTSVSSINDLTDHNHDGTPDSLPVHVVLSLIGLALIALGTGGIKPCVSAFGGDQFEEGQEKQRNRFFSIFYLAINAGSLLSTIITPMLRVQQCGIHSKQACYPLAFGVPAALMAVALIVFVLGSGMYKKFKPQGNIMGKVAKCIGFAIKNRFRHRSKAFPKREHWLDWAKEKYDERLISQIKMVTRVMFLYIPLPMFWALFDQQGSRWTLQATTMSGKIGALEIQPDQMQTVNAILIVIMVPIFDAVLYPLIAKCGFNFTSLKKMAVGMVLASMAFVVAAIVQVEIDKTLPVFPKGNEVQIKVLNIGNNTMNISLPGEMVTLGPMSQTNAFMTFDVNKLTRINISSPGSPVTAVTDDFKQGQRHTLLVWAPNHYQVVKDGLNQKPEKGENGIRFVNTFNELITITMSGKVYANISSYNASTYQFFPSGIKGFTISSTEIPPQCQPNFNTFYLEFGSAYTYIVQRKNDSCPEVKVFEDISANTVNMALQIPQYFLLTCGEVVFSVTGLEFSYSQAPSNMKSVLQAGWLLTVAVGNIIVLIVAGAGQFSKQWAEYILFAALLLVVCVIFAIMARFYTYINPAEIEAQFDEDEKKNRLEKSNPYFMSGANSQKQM

[2] = target: T1, Solute carrier family 15 member 1 (Homo sapiens); test: TP_TRANSPORTER: inhibition of Gly-Sar uptake (Gly-Sar: 20 uM, Gly-Gly-Ile: 10000 uM) in PEPT1-expressing HeLa cells; set-up: scale not given: the % may be the effect or the level left
[3] = target: T1, Solute carrier family 15 member 1 (Homo sapiens); test: TP_TRANSPORTER: inhibition of Gly-Sar uptake (Gly-Sar: 20 uM, Gly-Gly-Pro: 10000 uM) in PEPT1-expressing HeLa cells; set-up: scale not given: the % may be the effect or the level left
[4] = target: T1, Solute carrier family 15 member 1 (Homo sapiens); test: TP_TRANSPORTER: inhibition of Gly-Sar uptake (Gly-Sar: 20 uM, Gly-Pro: 10000 uM) in PEPT1-expressing HeLa cells; set-up: scale not given: the % may be the effect or the level left
[5] = target: T1, Solute carrier family 15 member 1 (Homo sapiens); test: TP_TRANSPORTER: inhibition of Gly-Sar uptake (Gly-Sar: 20 uM, Leu-Pro: 10000 uM) in PEPT1-expressing HeLa cells; set-up: scale not given: the % may be the effect or the level left
[6] = substrate: CN(CC(=O)O)C(=O)CN; test: TP_TRANSPORTER: uptake in PEPT1-expressing HeLa cells

Molecule: CC[C@H](C)[C@H](NC(=O)CNC(=O)CN)C(=O)O (H-Gly-Gly-Ile-OH)
- Activity [2]: 10%

Molecule: NCC(=O)NCC(=O)N1CCC[C@H]1C(=O)O (H-Gly-Gly-Pro-OH)
- Activity [3]: 13%

Molecule: NCC(=O)N1CCC[C@H]1C(=O)O (H-Gly-Pro-OH)
- Activity [4]: 7%

B1: Solute carrier family 15 member 1 (Homo sapiens), P46059 (protein)
chain: MGMSKSHSFFGYPLSIFFIVVNEFCERFSYYGMRAILILYFTNFISWDDNLSTAIYHTFVALCYLTPILGALIADSWLGKFKTIVSLSIVYTIGQAVTSVSSINDLTDHNHDGTPDSLPVHVVLSLIGLALIALGTGGIKPCVSAFGGDQFEEGQEKQRNRFFSIFYLAINAGSLLSTIITPMLRVQQCGIHSKQACYPLAFGVPAALMAVALIVFVLGSGMYKKFKPQGNIMGKVAKCIGFAIKNRFRHRSKAFPKREHWLDWAKEKYDERLISQIKMVTRVMFLYIPLPMFWALFDQQGSRWTLQATTMSGKIGALEIQPDQMQTVNAILIVIMVPIFDAVLYPLIAKCGFNFTSLKKMAVGMVLASMAFVVAAIVQVEIDKTLPVFPKGNEVQIKVLNIGNNTMNISLPGEMVTLGPMSQTNAFMTFDVNKLTRINISSPGSPVTAVTDDFKQGQRHTLLVWAPNHYQVVKDGLNQKPEKGENGIRFVNTFNELITITMSGKVYANISSYNASTYQFFPSGIKGFTISSTEIPPQCQPNFNTFYLEFGSAYTYIVQRKNDSCPEVKVFEDISANTVNMALQIPQYFLLTCGEVVFSVTGLEFSYSQAPSNMKSVLQAGWLLTVAVGNIIVLIVAGAGQFSKQWAEYILFAALLLVVCVIFAIMARFYTYINPAEIEAQFDEDEKKNRLEKSNPYFMSGANSQKQM
- Km [6]: 290 µM

More lines, now with the values ahead:

- Activity [1]: 8%
Molecule: C[C@H](N)C(=O)N1CCC[C@H]1C(=O)O (H-Ala-Pro-OH)

- Activity [5]: 8%
Molecule: CC(C)C[C@H](N)C(=O)N1CCC[C@H]1C(=O)O (H-Leu-Pro-OH)
